Target: T1, hAhR (Homo sapiens, UniProt P35869)
T1 construct: Stably integrated DRE-luciferase cell lines were generated by transducing the both cell lines with Cignal XRE luciferase reporter (Qiagen) lentiviral particles; endogenous in cells
T1 sequence (P35869 11-848): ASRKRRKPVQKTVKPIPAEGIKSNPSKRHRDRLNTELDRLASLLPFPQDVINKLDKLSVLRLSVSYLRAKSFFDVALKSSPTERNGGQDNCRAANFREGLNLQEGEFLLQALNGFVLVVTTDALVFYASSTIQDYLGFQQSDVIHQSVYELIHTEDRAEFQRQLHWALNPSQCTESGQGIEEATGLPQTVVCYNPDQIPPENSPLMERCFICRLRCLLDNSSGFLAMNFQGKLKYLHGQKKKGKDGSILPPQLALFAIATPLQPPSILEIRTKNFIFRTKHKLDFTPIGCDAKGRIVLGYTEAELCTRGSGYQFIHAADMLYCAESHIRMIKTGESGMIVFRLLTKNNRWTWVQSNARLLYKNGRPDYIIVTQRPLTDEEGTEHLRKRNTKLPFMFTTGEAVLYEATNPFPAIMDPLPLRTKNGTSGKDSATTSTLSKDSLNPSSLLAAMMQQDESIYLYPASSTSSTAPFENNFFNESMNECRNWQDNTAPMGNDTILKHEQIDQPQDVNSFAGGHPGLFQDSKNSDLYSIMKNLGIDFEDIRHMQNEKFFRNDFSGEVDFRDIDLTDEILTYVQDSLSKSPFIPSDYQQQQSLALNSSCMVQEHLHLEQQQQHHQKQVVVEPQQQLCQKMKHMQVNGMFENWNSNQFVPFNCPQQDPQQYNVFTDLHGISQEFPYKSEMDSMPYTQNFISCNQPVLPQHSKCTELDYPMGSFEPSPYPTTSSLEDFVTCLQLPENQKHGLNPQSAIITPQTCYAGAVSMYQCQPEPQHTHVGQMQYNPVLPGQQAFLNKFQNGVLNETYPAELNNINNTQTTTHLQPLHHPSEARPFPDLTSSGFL
Assay: AhR DRE-luciferase reporter transcriptional assay, antagonist mode (TCDD-induced)
Type: cell-based
Settings: HEPG2 DRE-Luc cells, 3 nM TCDD, 24 hour incubation, relative IC50
Method in brief: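 HepG2 cells carrying a stably integrated DRE-luciferase reporter, in OptiMEM with 0.5% FBS; semi-log compound doses added with 3 nM TCDD, 24 h incubation, firefly luciferase read-out. Percent maximal activity normalised between vehicle ± TCDD; relative IC50 taken as half-reduction between curve plateaus.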

SMILES	IC50 [nM]
Cc1cc(-c2ccc3cc(F)ccc3n2)ccc1NC(=O)c1ccnn1C [Example 014, N-(4-(6-fluoroquinolin-2-yl)-2-methylphenyl)-1-methyl-1H-pyrazole-5-carboxamide]	200 to 500
Cc1cc(-c2ccc3cncc(Cl)c3c2)ccc1NC(=O)c1ccnn1C [Example 060, N-(4-(4-chloroisoquinolin-6-yl)-2-methylphenyl)-1-methyl-1H-pyrazole-5-carboxamide]	200 to 500
Cc1cc(-c2ccc3cc([N+](=O)[O-])ccc3n2)ccc1NC(=O)c1ccnn1C [Example 076, 1-methyl-N-(2-methyl-4-(6-nitroquinolin-2-yl)phenyl)-1H-pyrazole-5-carboxamide]	< 200
Cc1cc(-c2ncc3nc(C(F)(F)F)cc(C)c3n2)ccc1N(C)C(=O)c1cc(C(N)=O)nn1CC#N [Example 198, 1-(cyanomethyl)-N5-methyl-N5-(2-methyl-4-(8-methyl-6-(trifluoro-methyl)pyrido[3,2-d]pyrimidin-2-yl)phenyl)-1H-pyrazole-3,5-dicarboxamide]	< 200
Cn1nccc1C(=O)Nc1ccc(-c2ccc3nc(C(F)(F)F)ccc3n2)cc1F [Example 103, N-(2-fluoro-4-(6-(trifluoromethyl)-1,5-naphthyridin-2-yl)phenyl)-1-methyl-1H-pyrazole-5-carboxamide]	< 200
Cn1nccc1C(=O)Nc1ccc(-c2ccc3cc(F)ccc3n2)cc1C(F)(F)F [Example 048, N-(4-(6-fluoroquinolin-2-yl)-2-(trifluoromethyl)phenyl)-1-methyl-1H-pyrazole-5-carboxamide]	1000 to 10000
Cc1cc(-c2ccc3c(ccn3C)n2)ccc1NC(=O)c1ccnn1C [Example 085, 1-methyl-N-(2-methyl-4-(1-methyl-1H-pyrrolo[3,2-b]pyridin-5-yl)phenyl)-1H-pyrazole-5-carboxamide]	1000 to 10000
Cc1cc(-c2ccc3cccc(C)c3n2)ccc1NC(=O)OC(C)(C)C [Example 017, tert-butyl (2-methyl-4-(8-methylquinolin-2-yl)phenyl)carbamate]	1000 to 10000
Cc1cc(-c2ccc3cccc(F)c3n2)ccc1NC(=O)OC(C)(C)C [Example 022, tert-butyl (4-(8-fluoroquinolin-2-yl)-2-methylphenyl)carbamate]	1000 to 10000

Now from value to compound:

IC50 [nM]	SMILES
1000 to 10000	Cc1cc(-c2ccc3cc(F)ccc3n2)ccc1NC(=O)c1ccnnc1 [Example 029, N-(4-(6-fluoroquinolin-2-yl)-2-methylphenyl)pyridazine-4-carboxamide]
< 200	COc1cnccc1C(=O)Nc1ccc(-c2ncc3cc(C(F)(F)F)ccc3n2)cc1C [Example 144, 3-methoxy-N-(2-methyl-4-(6-(trifluoromethyl)quinazolin-2-yl)phenyl)isonicotinamide]
200 to 500	Cc1c(-c2ncc3cc(C(F)(F)F)ccc3n2)ccc(NC(=O)c2ccnn2C)c1F [Example 113, N-(2-fluoro-3-methyl-4-(6-(trifluoromethyl)quinazolin-2-yl)phenyl)-1-methyl-1H-pyrazole-5-carboxamide]
< 200	Cc1cc(-c2ncc3cc(F)cc(C)c3n2)ccc1NC(=O)c1ccnn1C [Example 109, N-(4-(6-fluoro-8-methylquinazolin-2-yl)-2-methylphenyl)-1-methyl-1H-pyrazole-5-carboxamide]
< 200	Cc1cc(C(F)(F)F)nc2cnc(-c3ccc(NC(=O)c4ccnn4C)c(F)c3)nc12 [Example 163, N-[2-fluoro-4-[8-methyl-6-(trifluoromethyl)pyrido[3,2-d]pyrimidin-2-yl]phenyl]-1-methyl-1H-pyrazole-5-carboxamide]
200 to 500	Cc1cc(-c2ncc3cc(C(F)(F)F)ccc3n2)ccc1N(C)C(=O)c1nn(C)cc1C [Example 214, N,1,4-trimethyl-N-(2-methyl-4-(6-(trifluoromethyl)quinazolin-2-yl)phenyl)-1H-pyrazole-3-carboxamide]
